For one compound, 1/V and Ki results are on record in patent US6087119A, “Method for determining the catalytic activity of factor IXa” (Roche Diagnostics GmbH, priority 1996, dated 2000).

The test has as its target rFIXa (human) (Homo sapiens, UniProt P00740). Description: Determination of the dissociation constant Ki according to DIXON, rFIXa. Particulars: pH 8.5, 33% ethylene glycol. The test is classed as biochemical. On the set-up: coding for the FIX protease domain from amino acid position 181 to 415; Met (ATG start codon) (N); made in house. Here is the method: Determination of the Dissociation Constant Ki According to the Method of DIXON
42 mmol/l Tris-HCl, pH 8.5
inhibitor in stepped concentrations (0, 20.4 and 40.8 μmol/l) […]
0.14 μmol/l rFIXa (human) […]
TIPPS-(3-Am)Phe-iNip-OH was used as the inhibitor and the inhibitory effect was determined as an example for two substrates under optimal conditions (pH 8.5, 33% ethylene glycol).

Chain of rFIXa (human) (P00740 227-461 limits assumed): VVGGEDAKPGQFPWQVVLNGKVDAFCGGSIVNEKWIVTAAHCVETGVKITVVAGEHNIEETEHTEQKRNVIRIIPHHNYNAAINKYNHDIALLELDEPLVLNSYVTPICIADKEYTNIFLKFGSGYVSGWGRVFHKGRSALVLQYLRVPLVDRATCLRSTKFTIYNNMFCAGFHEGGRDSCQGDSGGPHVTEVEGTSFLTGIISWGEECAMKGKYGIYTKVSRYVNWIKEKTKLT
Chain of rFIXa (human) (P00740 131-226 limits assumed): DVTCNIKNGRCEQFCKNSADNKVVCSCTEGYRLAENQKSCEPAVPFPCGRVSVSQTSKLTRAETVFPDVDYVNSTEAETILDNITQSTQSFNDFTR

The Ki is a measure of affinity in units of concentration, obtained from inhibition or displacement. For the compound `CC(C)c1cc(C(C)C)c(S(=O)(=O)NC(Cc2cccc(C(=N)N)c2)C(=O)N2CCC(C(=O)O)CC2)c(C(C)C)c1` (centres unmarked) [TIPPS-(3-Am)Phe-iNip-OH, Nα-(2,4,6-triisopropylbenzenesulfonyl)-3-amidino-(D,L)-phenylalanine-isonipecotic acid], the 1/V (inhibitor 20.4 μmol/l, MeSO2-D-CHG-Gly-Arg-pNA 0.25 μmol/l, 0.057 μmol/l rFIXa) came to 78.1 min/mA; the 1/V (inhibitor 20.4 μmol/l, MeSO2-D-CHG-Gly-Arg-pNA 0.51 μmol/l, 0.057 μmol/l rFIXa) was 55.6 min/mA; the 1/V (inhibitor 20.4 μmol/l, MeSO2-D-CHG-Gly-Arg-pNA 1.02 μmol/l, 0.057 μmol/l rFIXa) is given as 23.8 min/mA; the 1/V (inhibitor 20.4 μmol/l, MeSO2-D-HHT-Gly-Arg-pNA 0.25 μmol/l, 0.14 μmol/l rFIXa) stood at 69.4 min/mA; the 1/V (inhibitor 20.4 μmol/l, MeSO2-D-HHT-Gly-Arg-pNA 0.51 μmol/l, 0.14 μmol/l rFIXa) worked out at 43.5 min/mA; the 1/V (inhibitor 20.4 μmol/l, MeSO2-D-HHT-Gly-Arg-pNA 1.02 μmol/l, 0.14 μmol/l rFIXa) stood at 16.6 min/mA. Moreover, the 1/V is reported as 153 min/mA (inhibitor 40.8 μmol/l, MeSO2-D-CHG-Gly-Arg-pNA 0.25 μmol/l, 0.057 μmol/l rFIXa); 109 min/mA (inhibitor 40.8 μmol/l, MeSO2-D-CHG-Gly-Arg-pNA 0.51 μmol/l, 0.057 μmol/l rFIXa); 44.6 min/mA (inhibitor 40.8 μmol/l, MeSO2-D-CHG-Gly-Arg-pNA 1.02 μmol/l, 0.057 μmol/l rFIXa); 137 min/mA (inhibitor 40.8 μmol/l, MeSO2-D-HHT-Gly-Arg-pNA 0.25 μmol/l, 0.14 μmol/l rFIXa); 90.9 min/mA (inhibitor 40.8 μmol/l, MeSO2-D-HHT-Gly-Arg-pNA 0.51 μmol/l, 0.14 μmol/l rFIXa); 31.2 min/mA (inhibitor 40.8 μmol/l, MeSO2-D-HHT-Gly-Arg-pNA 1.02 μmol/l, 0.14 μmol/l rFIXa). In addition, affinity (rFIXa, substrate MeSO2-D-CHG-Gly-Arg-pNA) was put at a Ki of 16 µM and the Ki (recombinant FIXa, substrate MeSO2-D-HHT-Gly-Arg-pNA) is 12 µM.
